Measurements published in paper PMC3577938 (Organic & biomolecular chemistry, 2013).

Columns and labels:
Format in all cases: cell-based
[1] = biological target: T1, human TLR7 (Homo sapiens, UniProt Q9NYK1); assay: Human TLR7-specific reporter gene assay; conditions: for Agonistic Activity (μM) TLR7: EC50 in human TLR7-specific reporter gene assay, Inactive = EC50 >100 μM
T1 sequence (Q9NYK1 27-1049): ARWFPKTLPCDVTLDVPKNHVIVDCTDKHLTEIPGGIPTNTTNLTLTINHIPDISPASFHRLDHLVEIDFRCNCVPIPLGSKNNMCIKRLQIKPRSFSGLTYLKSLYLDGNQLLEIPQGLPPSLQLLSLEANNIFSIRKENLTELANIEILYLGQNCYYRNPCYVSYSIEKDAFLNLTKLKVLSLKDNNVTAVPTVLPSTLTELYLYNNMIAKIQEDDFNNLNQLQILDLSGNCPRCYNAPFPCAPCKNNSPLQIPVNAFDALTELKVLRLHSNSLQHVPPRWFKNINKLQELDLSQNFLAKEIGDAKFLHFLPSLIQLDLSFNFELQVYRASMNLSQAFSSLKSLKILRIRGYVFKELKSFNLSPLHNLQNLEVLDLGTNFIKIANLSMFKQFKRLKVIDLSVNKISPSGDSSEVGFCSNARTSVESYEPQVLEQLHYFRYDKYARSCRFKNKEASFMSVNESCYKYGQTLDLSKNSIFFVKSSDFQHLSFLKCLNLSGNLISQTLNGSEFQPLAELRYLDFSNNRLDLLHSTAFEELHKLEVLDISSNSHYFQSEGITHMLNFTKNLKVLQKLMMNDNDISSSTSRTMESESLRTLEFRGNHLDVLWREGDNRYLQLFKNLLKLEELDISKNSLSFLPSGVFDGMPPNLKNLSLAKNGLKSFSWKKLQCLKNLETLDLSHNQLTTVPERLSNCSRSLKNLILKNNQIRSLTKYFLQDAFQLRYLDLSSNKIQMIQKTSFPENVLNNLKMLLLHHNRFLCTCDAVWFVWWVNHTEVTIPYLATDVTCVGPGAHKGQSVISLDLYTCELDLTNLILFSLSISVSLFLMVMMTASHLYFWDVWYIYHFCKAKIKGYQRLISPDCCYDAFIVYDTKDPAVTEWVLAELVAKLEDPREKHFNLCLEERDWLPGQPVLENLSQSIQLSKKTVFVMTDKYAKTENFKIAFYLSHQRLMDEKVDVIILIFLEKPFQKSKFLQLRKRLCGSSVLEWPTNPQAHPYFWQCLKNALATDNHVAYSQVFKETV

[2] = biological target: T2, human TLR8 (Homo sapiens, UniProt Q9NR97); assay: Human TLR8-specific reporter gene assay; conditions: for Agonistic Activity (μM) TLR8: EC50 in human TLR8-specific reporter gene assay, Inactive = EC50 >100 μM; for TLR8-agonistic potency/activity (in words): hTLR8 reporter gene assay
T2 sequence (Q9NR97 27-1041): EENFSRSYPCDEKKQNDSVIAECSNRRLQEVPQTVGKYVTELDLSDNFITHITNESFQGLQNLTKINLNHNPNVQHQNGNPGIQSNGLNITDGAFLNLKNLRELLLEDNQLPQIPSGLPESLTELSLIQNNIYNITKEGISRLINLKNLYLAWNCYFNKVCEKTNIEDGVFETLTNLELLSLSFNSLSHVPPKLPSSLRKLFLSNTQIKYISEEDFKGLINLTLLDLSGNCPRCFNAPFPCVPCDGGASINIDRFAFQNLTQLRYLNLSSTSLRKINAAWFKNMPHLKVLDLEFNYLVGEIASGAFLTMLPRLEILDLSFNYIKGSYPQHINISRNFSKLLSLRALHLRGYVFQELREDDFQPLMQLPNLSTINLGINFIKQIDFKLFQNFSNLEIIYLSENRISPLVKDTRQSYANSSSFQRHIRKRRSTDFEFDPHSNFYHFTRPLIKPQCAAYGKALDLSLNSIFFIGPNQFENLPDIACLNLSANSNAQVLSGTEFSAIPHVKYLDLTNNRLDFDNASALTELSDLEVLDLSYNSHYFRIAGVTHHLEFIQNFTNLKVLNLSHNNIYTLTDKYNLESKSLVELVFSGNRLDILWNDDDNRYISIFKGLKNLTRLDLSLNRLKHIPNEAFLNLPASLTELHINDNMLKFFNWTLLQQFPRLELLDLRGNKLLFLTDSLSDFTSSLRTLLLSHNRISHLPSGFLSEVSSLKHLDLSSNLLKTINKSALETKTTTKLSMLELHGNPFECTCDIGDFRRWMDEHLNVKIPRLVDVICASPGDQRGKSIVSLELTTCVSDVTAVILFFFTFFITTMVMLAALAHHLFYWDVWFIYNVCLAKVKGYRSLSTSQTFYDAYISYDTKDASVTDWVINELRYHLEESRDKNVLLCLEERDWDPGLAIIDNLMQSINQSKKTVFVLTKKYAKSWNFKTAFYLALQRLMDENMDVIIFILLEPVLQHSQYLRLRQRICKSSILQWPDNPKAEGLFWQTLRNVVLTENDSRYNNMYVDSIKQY

[3] = tested on: human TLR7 or human TLR8; conditions: primary TLR8/TLR7 reporter gene assays, receptor not given

Row | Compound | Agonistic Activity (μM) TLR7 [1] | Agonistic Activity (μM) TLR8 [2] | further results
1 | CCCc1nc2c(N)nc3ccc(-n4cc([Si](C)(C)C)nn4)cc3c2s1 [Compound 12f, 2-propyl-8-(4-(trimethylsilyl)-1H-1,2,3-triazol-1-yl)thiazolo[4,5-c]quinolin-4-amine] | Inactive |  | 
2 | CCCCCCCCCc1nc2c(N)nc3ccccc3c2s1 [Compound 8h, 2-nonylthiazolo[4,5-c]quinolin-4-amine] | Inactive | Inactive | 
3 | CCCCCc1nc2c(N)nc3ccccc3c2s1 [Compound 8e, 2-pentylthiazolo[4,5-c]quinolin-4-amine] |  |  | TLR8-agonistic potency/activity (in words) [2]: attenuation of potency
4 | CCCc1nc2c(N)nc3ccc(N=[N+]=[N-])cc3c2s1 [Compound 11, 8-azido-2-propylthiazolo[4,5-c]quinolin-4-amine] |  |  | agonistic activity (in words) [3]: inactive
5 | CCCc1nc2c(N)nc3ccc(N)cc3c2s1 [Compound 10, 2-propylthiazolo[4,5-c]quinoline-4,8-diamine] |  |  | agonistic activity (in words) [3]: attenuated activity relative to 8c
6 | CCCc1nc2c(N)nc3ccc(-n4cc(-c5ccccc5)nn4)cc3c2s1 [Compound 12c, 8-(4-phenyl-1H-1,2,3-triazol-1-yl)-2-propylthiazolo[4,5-c]quinolin-4-amine] | Inactive | Inactive | 
7 | CCCc1nc2c(N)nc3ccc(-n4cc(C(C)(C)O)nn4)cc3c2s1 [Compound 12a, 2-(1-(4-amino-2-propylthiazolo[4,5-c]quinolin-8-yl)-1H-1,2,3-triazol-4-yl)propan-2-ol] | Inactive | Inactive | 
8 | CCCCCCc1nc2c(N)nc3ccccc3c2s1 [Compound 8f, 2-hexylthiazolo[4,5-c]quinolin-4-amine] | Inactive | Inactive^a | 
9 | Nc1nc2ccccc2c2sc(CCCC(F)(F)F)nc12 [Compound 8q, 2-(4,4,4-trifluorobutyl)thiazolo[4,5-c]quinolin-4-amine] |  |  | TLR8-agonistic potency/activity (in words) [2]: decrease in potency
10 | CC(C)c1nc2c(N)nc3ccccc3c2s1 [Compound 8i, 2-isopropylthiazolo[4,5-c]quinolin-4-amine] |  |  | attenuation of activity in TLR7-specific reporter gene assays ([1]; isopropyl at C2, fold attenuation): about two-fold; reduction in TLR8-agonistic potency ([2]; isopropyl at C2, fold reduction): approximately ten-fold
11 | CCCc1nc2c(N)nc3ccc(-n4ccnn4)cc3c2s1 [Compound 12g, 2-propyl-8-(1H-1,2,3-triazol-1-yl)thiazolo[4,5-c]quinolin-4-amine] | Inactive | Inactive | 
12 | CCCc1cn(-c2ccc3nc(N)c4nc(CCC)sc4c3c2)nn1 [Compound 12d, 2-propyl-8-(4-propyl-1H-1,2,3-triazol-1-yl)thiazolo[4,5-c]quinolin-4-amine] | Inactive | Inactive | 
13 | CCCCCc1cn(-c2ccc3nc(N)c4nc(CCC)sc4c3c2)nn1 [Compound 12e, 8-(4-pentyl-1H-1,2,3-triazol-1-yl)-2-propylthiazolo[4,5-c]quinolin-4-amine] | Inactive | Inactive | 
14 | CCCCCCCc1nc2c(N)nc3ccccc3c2s1 [Compound 8g, 2-heptylthiazolo[4,5-c]quinolin-4-amine] | Inactive | Inactive | 
15 | CCCc1nc2c(N)nc3ccc(-n4cc(CO)nn4)cc3c2s1 [Compound 12b, (1-(4-amino-2-propylthiazolo[4,5-c]quinolin-8-yl)-1H-1,2,3-triazol-4-yl)methanol] | Inactive | Inactive | 

Now from value to compound, other results behind:

Row | Agonistic Activity (μM) TLR7 [1] | Agonistic Activity (μM) TLR8 [2] | Compound | further results
16 | Inactive |  | C#CCCC(=O)Nc1nc2ccccc2c2sc(CCC)nc12 [Compound 15l, N-(2-propylthiazolo[4,5-c]quinolin-4-yl)pent-4-ynamide] | 
17 | Inactive |  | CCCc1nc2c(NC(C)=O)nc3ccccc3c2s1 [Compound 15e, N-(2-propylthiazolo[4,5-c]quinolin-4-yl)acetamide] | TLR8-agonistic potency/activity (in words) [2]: virtually inactive
18 | Inactive | Inactive | CCCc1nc2c(NS(=O)(=O)CCC)nc3ccccc3c2s1 [Compound 15t, N-(2-propylthiazolo[4,5-c]quinolin-4-yl)propane-1-sulfonamide] | 
19 | Inactive | Inactive | CCCCOC(=O)Nc1nc2ccccc2c2sc(CCC)nc12 [Compound 15o, butyl (2-propylthiazolo[4,5-c]quinolin-4-yl)carbamate] | 
20 | Inactive |  | CCCc1nc2c(NS(C)(=O)=O)nc3ccccc3c2s1 [Compound 15r, N-(2-propylthiazolo[4,5-c]quinolin-4-yl)methanesulfonamide] | 
21 | Inactive | Inactive | CCCCCCCCCCCCCCCCNc1nc2ccccc2c2sc(CCC)nc12 [Compound 15c, N-hexadecyl-2-propylthiazolo[4,5-c]quinolin-4-amine] | 
22 | Inactive | Inactive | CCCCCCCCOC(=O)Nc1nc2ccccc2c2sc(CCC)nc12 [Compound 15p, octyl (2-propylthiazolo[4,5-c]quinolin-4-yl)carbamate] | 
23 | Inactive | Inactive | CCCCS(=O)(=O)Nc1nc2ccccc2c2sc(CCC)nc12 [Compound 15u, N-(2-propylthiazolo[4,5-c]quinolin-4-yl)butane-1-sulfonamide] | 
24 | Inactive | Inactive | CCCc1nc2c(NS(=O)(=O)c3ccc(C)cc3)nc3ccccc3c2s1 [Compound 15v, 4-methyl-N-(2-propylthiazolo[4,5-c]quinolin-4-yl)benzenesulfonamide] | 
25 | Inactive | Weak | CCCc1nc2c(NC(=O)OC)nc3ccccc3c2s1 [Compound 15m, methyl (2-propylthiazolo[4,5-c]quinolin-4-yl)carbamate] | 
26 | Inactive | Inactive | CCCc1nc2c(NC(=O)OCC)nc3ccccc3c2s1 [Compound 15n, ethyl (2-propylthiazolo[4,5-c]quinolin-4-yl)carbamate] | 
27 | Inactive | Inactive | CCCc1nc2c(NS(=O)(=O)CC)nc3ccccc3c2s1 [Compound 15s, N-(2-propylthiazolo[4,5-c]quinolin-4-yl)ethanesulfonamide] | 
28 | Inactive |  | CCCc1nc2c(NC(=O)CCN=[N+]=[N-])nc3ccccc3c2s1 [Compound 15k, 3-azido-N-(2-propylthiazolo[4,5-c]quinolin-4-yl)propanamide] | 
